The values that follow come from US20250213700A1, “COMPOUNDS, COMPOSITIONS, AND METHODS FOR CELL-SPECIFIC PHARMACOLOGY” (Duke University, priority 2022, published 2025).

Data set [1] relates to +HTP somatostatin interneurons and -HTP neurons of V1 visual cortex. Description: 2P calcium imaging of V1 visual responses after contralateral ventricle infusion, SOM-Cre mice. Particulars: infused with YM90K.1DART.2 into contralateral ventricle, widefield fluorescence. The data set is classed as in vivo, mouse. The procedure:
Top left: Mice expressing pan-neuronal GCaMP8s with SOM-specific ^+HTP. Window over V1. DART delivered via the contralateral ventricle. Bottom left: In-vivo and ex-vivo expression and dye capture. Right: Mice presented oriented visual gratings, 2P Ca^2+ imaging obtained before and 5-6 hr after infusion of 0.3 nmole Alexa647.1^DART.2+3 nmole YM90K.1^DART.2 (2 μL volume) into the contralateral ventricle.
Next, it was examined whether this strategy could deliver a pharmacologically active DART to genetically defined cells. A surgery was performed in which AAV DIO +HTPGPI was injected into the V1 visual cortex of SOM-Cre mice for cell-specific expression in somatostatin interneurons, along with a co-injected AAV-GCaMP8s virus for pan-neuronal neural activity monitoring. A cannula was implanted in the contralateral ventricle, and glass window over V1. Following surgical recovery, a mixture of YM90K.1DART.2+Alexa647.1DART.2 was infused. […] To test for pharmacological effects, 2P calcium imaging of +HTP and −HTP was performed while mice were presented with oriented gratings. A reduction in +HTP visual response was apparent 4 hours post DART infusion. This reduction persisted even after 24 hours post infusion.

In data set [2] the target is T1, HTP on retinal ganglion cells (Rhodococcus rhodochrous, UniProt P0A3G2, A155T/A167V/A172T/A224E/C128F/C176G/D78G/E160K/E257K/H272N/K175M/K195N/L47V/L88M/N227D/S58T/T264A/Y273L/Y87F).
T1 construct: SSnlg signal peptide (residues 1-49 of mouse neuroligin-1) (N); Thy1 GPI anchor signal (C); expressed in transfected cells; host or cells: mouse neurons transduced in vivo with AAV-DIO-+HTPGPI (D1-Cre dorsal striatum; PV::cre retinal ganglion cells)
T1 sequence (P0A3G2 other isoform, or with tags, fused parts or gaps with the stated changes): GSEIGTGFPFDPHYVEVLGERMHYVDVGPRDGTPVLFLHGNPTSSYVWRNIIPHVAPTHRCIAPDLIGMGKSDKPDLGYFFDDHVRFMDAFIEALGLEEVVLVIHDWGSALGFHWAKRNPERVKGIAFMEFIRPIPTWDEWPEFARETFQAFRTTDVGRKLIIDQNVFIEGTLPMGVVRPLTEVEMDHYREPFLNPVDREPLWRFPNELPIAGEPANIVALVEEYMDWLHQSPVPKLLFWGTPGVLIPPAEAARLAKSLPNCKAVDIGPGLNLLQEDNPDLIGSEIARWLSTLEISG
Description: tracer dye capture on retinal ganglion cells. The data set is classed as cell-based, mouse. As to conditions: 30 nM, 15 min, after washout. As to the method: FIG. 6A-6C show bidirectional manipulation of AMPAR and GABAAR neurotransmission. (FIG. 6A) Viral strategy (top panel). Intravitreal AAV7m8-DIO-HTPGPI-2A-dTomao achieves retinal ganglion cell (RGC) expression in PV::cre mice. Experimental overview (second panel from the top to bottom panel). Top: whole retina; synaptic current is evoked (stim) and recorded (voltage-clamp of dTomato+ RGC), with ionic and pharmaceutical conditions chosen to isolate the AMPAR or GABAAR. A 10 min baseline is followed by 15 min application of 300 nM Rx^DART.2+30 nM Alexa^647.1DART.2. […] (FIG. 6B) CMPDA.2^DART.2 (left). Electropositive spacer (PDB 3RNN). […] EPSC waveform before and after CMPDA.2^DART.2. AMPAR structural model (middle) (composite of PDB 5WEO, 3RNN, and 1FTL). Cylinder depicts cell membrane. CMPDA.2^DART.2 binds within an inter-clamshell interface (2 per receptor). YM90K.1^DART.2 binds the orthosteric glutamate binding site in the clamshell (4 per receptor). YM90K.1^DART.2 (right). […]
Next it was asked whether bidirectional modulation of the AMPAR and GABAAR could be achieved in the same cell type. A preparation was focused on in which electrophysiology is the primary readout, enabling resolution of the amplitude and millisecond time-constant of synaptic transmission. […] A whole-mount retina was later prepared and evoked synaptic currents were measured under conditions that isolate the AMPAR or GABAAR. […]

Data set [3] can be described thus: biodistribution to cortex after lateral ventricle infusion (wide-field fluorescence through cranial window). Particulars: -HTP mice, high dose into lateral ventricle. The data set is classed as in vivo, mouse. From the text:
To maintain control of the ambient drug concentration in vivo, thus far a cannula was implanted in close proximity to the desired brain target. (FIG. 5) However, optical and electrical brain interfaces often occupy this precious real estate. For example, cranial window technologies, in which a portion of the skull is replaced with a glass window, have become instrumental in studying the neocortex. Application of drugs through a glass window remains an unsolved problem, as access ports will generally close due to scarring, and temporary removal of the window can compromise the preparation. Thus, it was asked whether DART.2 could enable dosing from a distance via the cerebrospinal fluid (CSF). Delivery via the cisterna magna was first explored, given reports that dextran tracers delivered at this site achieve rapid biodistribution throughout the neocortex parenchyma. Although there was some preliminary success with this approach, it was found difficult to establish mechanically stable cannulation of the cisterna magna, owing to its position below the base of the skull and to the mobility of the neck muscles. […] Following surgical recovery, a high dose of Alexa647.1DART.2 was fused into the LV (dose, volume) and monitored wide-field fluorescence intensity through the cranial window. Fluorescence intensity peaked 2 hr later, and largely cleared by 24 hours (i2055,i2056). […]

For data set [4], the target named is T2, HTP in D1 cells of left dorsal striatum (Rhodococcus rhodochrous, UniProt P0A3G2, A155T/A167V/A172T/A224E/C128F/C176G/D78G/E160K/E257K/H272N/K175M/K195N/L47V/L88M/N227D/S58T/T264A/Y273L/Y87F).
T2 construct: SSnlg signal peptide (residues 1-49 of mouse neuroligin-1) (N); Thy1 GPI anchor signal (C); expressed in transfected cells; host or cells: mouse neurons transduced in vivo with AAV-DIO-+HTPGPI (D1-Cre dorsal striatum; PV::cre retinal ganglion cells)
T2 sequence (P0A3G2 other isoform, or with tags, fused parts or gaps with the stated changes): as above
Description: histology of tracer dye capture in dorsal striatum. As to conditions: 3 µM dye+30 µM drug, histology 24 hr later. The data set is classed as in vivo, mouse. The procedure:
FIG. 3A-3F show quantitative engagement of the DART.2 platform. (FIG. 3A) Mice with ^+HTP or ^ddHTP in D1 cells of left dorsal striatum. Open field (1 hr) before and after Alexa488.1^DART.2+YM90K.1^DART.2 (3 µM dye+30 µM drug, 1 μL in 10 min). Histology performed 24 hr later. Left, dTomato expression and Alexa488.1^DART.2 capture from a ^+HTP mouse. […] Right, open-field turning vs dye capture. […] Dye capture can be used as a behavior-independent inclusion criterion (shading), allowing exclusion of 4 ^+HTP mice in this dataset. (FIG. 3B) Older technology lacked tracer^DART. Here, an estimate of technical success with a non-DART dye (fluorogold) was attempted and a numerical algorithm dye-virus overlap was estimated. […] (FIG. 3C and FIG. 3D) Characterization in live mice expressing HTP in dSPNs of the left dorsal striatum. Alexa^DART.2 co-infused with YM90^KDART.2 ligand provided permanent marker of drug capture, tight correspondence between histology and behavioral potency, and 3-fold increase in behavioral potency in comparison to its predecessor. (FIG. 3E and FIG. 3F) YM90^KDART.1 in live mice for comparison with above.
Histology. […] Images were analyzed for pixel intensity using MATLAB.
These advances were combined in a mouse locomotor assay. […] Mice were perfused for histology 24 hrs later, and quantitative measurement of the integrated Alexa capture over the dorsal striatum was performed. […]

Where only a bound is given, the exact number is not on record here.

Consider `COc1cc(CCCCl)ccc1CCOCCNC(=O)c1ccc(CNC(=O)CCOCCOCCOCCOCCOCCOCCOCCOCCOCCOCCOCCOCCOCCOCCOCCOCCOCCOCCOCCOCCOCCOCCOCCOCCOCCOCCOCCOCCOCCOCCOCCOCCOCCOCCOCCOCCn2cc(COCCOCCOCCOCCOCCOCCNC(=O)CCCCCC3(C)\C(=C/C=C/C=C/C4=[N+](CCCS(=O)(=O)O)c5ccc(S(=O)(=O)[O-])cc5C4(C)C)N(CCCS(=O)(=O)O)c4ccc(S(=O)(=O)O)cc43)nn2)cc1` (stereo not drawn) [Alexa647.1DART.2], for which, in data set [1], the “time for DART capture to reach steady state” value lay within 4 to 8 h. Further, in data set [2], the “dye capture on +HTP cells” value is reported as “robust capture” and the “dye capture on ddHTP or -HTP cells” value is given as “no detectible capture”. For the same molecule, in data set [3], the “time by which fluorescence largely cleared” value was not above 24 h and the “time to peak fluorescence intensity over cortex” value came out at 2 h.

In the case of `COc1cc(CCCCl)ccc1CCOCCNC(=O)c1ccc(CNC(=O)CCOCCOCCOCCOCCOCCOCCOCCOCCOCCOCCOCCOCCOCCOCCOCCOCCOCCOCCOCCOCCOCCOCCOCCOCCOCCOCCOCCOCCOCCOCCOCCOCCOCCOCCOCCOCCn2cc(CNC(=O)c3ccc(-c4c5ccc(=N)c(S(=O)(=O)O)c-5oc5c(S(=O)(=O)O)c(N)ccc45)c(C(=O)O)c3)nn2)cc1` [Alexa488.1^DART.2, 6-amino-9-(2-carboxy-4-(((1-(1-(4-((2-(4-(3-chloropropyl)-2-methoxyphenethoxy)ethyl)carbamoyl)phenyl)-3-oxo-6,9, 12, 15, 18, 21, 24, 27, 30, 33, 36, 39, 42, 45, 48, 51, 54, 57, 60, 63, 66, 69, 72, 75, 78, 81, 84, 87, 90, 93, 96, 99, 102, 105, 108, 111-hexatriacontaoxa-2-azatridecahectan-113-yl)-1H-1,2,3-triazol-4-yl)methyl)carbamoyl)phenyl)-3-iminio-5-sulfo-3H-xanthene-4-sulfonate], the “dye capture, ddHTP mice” value in data set [4] is on record as “No dye capture detected”.
